Test results taken from publication PMC8279492, “Quinolinonyl Non-Diketo Acid Derivatives as Inhibitors of HIV-1 Ribonuclease H and Polymerase Functions of Reverse Transcriptase” (Journal of Medicinal Chemistry, 2021).
Like-named read-outs stand apart in the source and are kept apart here.

Columns and labels:
[1] = target: T1, HIV-1 RT-associated RNase H activity (Human immunodeficiency virus type 1 group M subtype B, UniProt P03366); assay: biochemical; format: biochemical
T1 construct: His-tagged p66/p51 HIV-1 RT group M subtype B; His; made in house; host or cells: Escherichia coli M15
Method: (11) and β-thujaplicinol (BTP) used as positive controls.
His-tagged p66/p51 HIV-1 RT group M subtype B coded in a p6HRT-prot plasmid was expressed in the Escherichia coli strain M15.[65] Heterodimeric RTs were expressed essentially and purified as described.[66]
The HIV-1 RT-associated RNase H activity was measured as described.[68] Briefly, the reaction was carried out in a black 96-well plate in a total volume of 100 μL. […] Experiments were performed in duplicate and replicated at least two times. Data were analyzed as described.[36]

HIV-1 IN = HIV-1 IN (Human immunodeficiency virus type 1 group M subtype B, UniProt P12497); assay: biochemical
Method: His-tagged NL4-3 IN was expressed from a pET15b plasmid in the E. coli BL21 pLys strain. Recombinant protein was purified as previously described[67] following a batch preparation on Ni-NTA beads (Qiagen, Paris, France).
Both oligonucleotides were purchased from Integrated DNA Technologies, Inc. (Coralville, IA), and the gel was purified in-house. ST reactions were performed by adding molecules or an equivalent volume of 100% dimethyl sulfoxide (DMSO, used as the drug solvent) to a mixture of 20 nM duplex DNA substrate and 400 nM IN in 50 mM MOPS pH 7.2, 7.5 mM MgCl2, and 14 mM 2-mercaptoethanol. Mixtures were incubated at 37 °C for 2 h, and the reaction was quenched by addition of an equal volume of loading buffer [formamide containing 1% sodium dodecyl sulfate (SDS), 0.25% bromophenol blue, and xylene cyanol]. […] Dried gels were visualized using a FLA5000 (Fuji Photo Film, Tokyo, Japan). Densitometric analyses were performed using ImageQuant 5.1 software from GE Healthcare.

HIV-1 replication = HIV-1 replication in HeLa-CD4-LTR-β-gal reporter cells; format: cell-based; conditions: read-out: antiviral activity EC50
Method: (§1) HIV-1 replication was monitored using HeLa-CD4-LTR-β-gal reporter cells as previously described.[69] Briefly, β-galactosidase activity was monitored 24 h post infection using a replication-competent HIV produced in-house (H9-laï coculture) and a serial dilution of molecules or an equivalent volume of DMSO. In parallel, compounds’ toxicity was determined at 24 h in the same cell line using CellTiter 96 AQueous One Solution Cell Proliferation Assay (Promega, France).

[2] = Compounds' toxicity, CellTiter 96 AQueous One Solution Cell Proliferation Assay; format: cell-based; conditions: human, HeLa-CD4-LTR-β-gal cells
Method: as §1

[3] = anti-RH activity (IC50 ± SD), HIV-1 RT-associated RNase H activity, dose-response curves, no preincubation
[4] = Human immunodeficiency virus 1, HeLa-CD4-LTR-β-gal cells, 24 h post infection
[5] = CC50 (cytotoxic concentration 50%), 24 h
[6] = HIV-1 RT-associated RNase H activity, dose-response curves, no preincubation
[7] = Human immunodeficiency virus 1, 24 h

O=C(O)c1cn(Cc2ccc(F)cc2)c2ccccc2c1=O [4a, 1-(4-Fluorobenzyl)-4-oxo-1,4-dihydroquinoline-3-carboxylic Acid]
IC50 [1, 3]: > 100 µM

N#Cc1ccc2c(c1)c(=O)c(C(=O)O)cn2Cc1ccc(F)cc1 [4b, 6-Cyano-1-(4-fluorobenzyl)-4-oxo-1,4-dihydroquinoline-3-carboxylic Acid]
IC50 [1, 3]: > 100 µM

O=C(O)c1cn(Cc2ccc(F)cc2)c2ccc(C(F)(F)F)cc2c1=O [4c, 1-(4-Fluorobenzyl)-4-oxo-6-(trifluoromethyl)-1,4-dihydroquinoline-3-carboxylic Acid]
IC50 [1, 3]: > 100 µM

CC(=O)c1ccc2c(c1)c(=O)c(C(=O)O)cn2Cc1ccc(F)cc1 [4d, 6-Acetyl-1-(4-fluorobenzyl)-4-oxo-1,4-dihydroquinoline-3-carboxylic Acid]
IC50 [1, 3]: 16.3 ± 1.42 µM | IC50 (HIV-1 IN): > 100 µM | EC50 (HIV-1 replication; [4]): > 50 µM | CC50 at 24 h [2, 5]: > 200 µM | CC50 at 24 h ([2]; supplement CSV, read-out: CC50): > 50 µM

O=C(O)c1cn(Cc2ccc(F)cc2)c2ccc([N+](=O)[O-])cc2c1=O [4e, 1-(4-Fluorobenzyl)-6-nitro-4-oxo-1,4-dihydroquinoline-3-carboxylic Acid]
IC50 [1, 3]: 56 ± 4 µM

CS(=O)(=O)c1ccc2c(c1)c(=O)c(C(=O)O)cn2Cc1ccc(F)cc1 [4f, 1-(4-Fluorobenzyl)-6-(methylsulfonyl)-4-oxo-1,4-dihydroquinoline-3-carboxylic Acid]
IC50 [1, 3]: 100 µM

O=C(O)c1cn(Cc2ccc(F)cc2)c2ccc(O)cc2c1=O [4g, 1-(4-Fluorobenzyl)-6-hydroxy-4-oxo-1,4-dihydroquinoline-3-carboxylic Acid]
IC50 [1, 3]: 74 ± 9 µM

COc1ccc2c(c1)c(=O)c(C(=O)O)cn2Cc1ccc(F)cc1 [4h, 1-(4-Fluorobenzyl)-6-methoxy-4-oxo-1,4-dihydroquinoline-3-carboxylic Acid]
anti-RH activity (IC50 ± SD) [1, 6]: no activity | IC50 [1, 3]: > 100 µM

O=C(O)c1cn(Cc2ccc(F)cc2)c2ccc(Oc3ccccc3)cc2c1=O [4i, 1-(4-Fluorobenzyl)-4-oxo-6-phenoxy-1,4-dihydroquinoline-3-carboxylic Acid]
IC50 [1, 3]: 32 ± 11 µM

CN(C)CCCOc1ccc2c(c1)c(=O)c(C(=O)O)cn2Cc1ccc(F)cc1 [4j, 6-(3-(Dimethylamino)propoxy)-1-(4-fluorobenzyl)-4-oxo-1,4-dihydroquinoline-3-carboxylic Acid]
IC50 [1, 3]: 15.4 ± 3 µM

O=C(O)c1cn(Cc2ccc(F)cc2)c2ccc(OCc3ccc4ccccc4c3)cc2c1=O [4p, 1-(4-Fluorobenzyl)-6-(naphthalen-2-ylmethoxy)-4-oxo-1,4-dihydroquinoline-3-carboxylic Acid]
IC50 ([1]; RH IC50 (uM), supplement CSV): 30.3 ± 1.69 µM | IC50 [1, 3]: 30.3 ± 1.7 µM | EC50 (HIV-1 replication; [4]): > 50 µM | CC50 at 24 h [2, 5]: > 200 µM | CC50 at 24 h ([2]; supplement CSV, read-out: CC50): > 50 µM

O=C(O)c1cn(Cc2ccc(F)cc2)c2ccc(OCCCCc3ccccc3)cc2c1=O [4r, 1-(4-Fluorobenzyl)-4-oxo-6-(4-phenylbutoxy)-1,4-dihydroquinoline-3-carboxylic Acid]
IC50 [1, 3]: 8.27 ± 0.45 µM | EC50 (HIV-1 replication; [4]): > 50 µM | CC50 at 24 h [2, 5]: > 200 µM | CC50 at 24 h ([2]; supplement CSV, read-out: CC50): > 50 µM

CCOC(=O)c1cn(Cc2ccc(F)cc2)c2ccc(C#N)cc2c1=O [5b, Ethyl 6-Cyano-1-(4-fluorobenzyl)-4-oxo-1,4-dihydroquinoline-3-carboxylate]
IC50 [1, 3]: > 100 µM

CCOC(=O)c1cn(Cc2ccc(F)cc2)c2ccc(C(F)(F)F)cc2c1=O [5c, Ethyl 1-(4-Fluorobenzyl)-4-oxo-6-(trifluoromethyl)-1,4-dihydroquinoline-3-carboxylate]
IC50 [1, 3]: 59 ± 5 µM

CCOC(=O)c1cn(Cc2ccc(F)cc2)c2ccc(C(C)=O)cc2c1=O [5d, Ethyl 6-Acetyl-1-(4-fluorobenzyl)-4-oxo-1,4-dihydroquinoline-3-carboxylate]
IC50 [1, 3]: 11 ± 1 µM | IC50 (HIV-1 IN): > 100 µM | EC50 (HIV-1 replication; [4]): > 50 µM | CC50 at 24 h [2, 5]: > 200 µM | CC50 at 24 h ([2]; supplement CSV, read-out: CC50): > 50 µM

CCOC(=O)c1cn(Cc2ccc(F)cc2)c2ccc([N+](=O)[O-])cc2c1=O [5e, Ethyl 1-(4-Fluorobenzyl)-6-nitro-4-oxo-1,4-dihydroquinoline-3-carboxylate]
IC50 [1, 3]: 47.8 ± 10 µM

CCOC(=O)c1cn(Cc2ccc(F)cc2)c2ccc(S(C)(=O)=O)cc2c1=O [5f, Ethyl 1-(4-Fluorobenzyl)-6-(methylsulfonyl)-4-oxo-1,4-dihydroquinoline-3-carboxylate]
IC50 [1, 3]: > 100 µM

CCOC(=O)c1cn(Cc2ccc(F)cc2)c2ccc(O)cc2c1=O [5g, Ethyl 1-(4-Fluorobenzyl)-6-hydroxy-4-oxo-1,4-dihydroquinoline-3-carboxylate]
IC50 [1, 3]: > 100 µM

CCOC(=O)c1cn(Cc2ccc(F)cc2)c2ccc(OC)cc2c1=O [5h, Ethyl 1-(4-Fluorobenzyl)-6-methoxy-4-oxo-1,4-dihydroquinoline-3-carboxylate]
anti-RH activity (IC50 ± SD) [1, 6]: no activity | IC50 [1, 3]: > 100 µM

CCOC(=O)c1cn(Cc2ccc(F)cc2)c2ccc(Oc3ccccc3)cc2c1=O [5i, Ethyl 1-(4-Fluorobenzyl)-4-oxo-6-phenoxy-1,4-dihydroquinoline-3-carboxylate]
IC50 [1, 3]: 45.5 ± 1.5 µM

CCOC(=O)c1cn(Cc2ccc(F)cc2)c2ccc(OCCCN(C)C)cc2c1=O [5j, Ethyl 6-(3-(Dimethylamino)propoxy)-1-(4-fluorobenzyl)-4-oxo-1,4-dihydroquinoline-3-carboxylate]
IC50 [1, 3]: > 100 µM

CCOC(=O)c1cn(Cc2ccc(F)cc2)c2ccc(/C=C/C(=O)c3ccccc3)cc2c1=O [5k, (E)-Ethyl 1-(4-Fluorobenzyl)-4-oxo-6-(3-oxo-3-phenylprop-1-en-1-yl)-1,4-dihydroquinoline-3-carboxylate]
IC50 [1, 3]: 15.3 ± 1.6 µM | EC50 (HIV-1 replication; [4]): > 50 µM | CC50 at 24 h [2, 5]: > 100 µM

CCOC(=O)c1cn(Cc2ccc(F)cc2)c2ccc(OCc3ccccc3)cc2c1=O [5l, Ethyl 6-(Benzyloxy)-1-(4-fluorobenzyl)-4-oxo-1,4-dihydroquinoline-3-carboxylate]
IC50 [1, 3]: 8 ± 1.6 µM | EC50 (HIV-1 replication; [4]): > 100 µM | CC50 at 24 h [2, 5]: > 100 µM

CCOC(=O)c1cn(Cc2ccc(F)cc2)c2ccc(OCc3cccc4ccccc34)cc2c1=O [5o, Ethyl 1-(4-Fluorobenzyl)-6-(naphthalen-1-ylmethoxy)-4-oxo-1,4-dihydroquinoline-3-carboxylate]
IC50 [1, 3]: 1.49 ± 0.33 µM | EC50 (HIV-1 replication; [7]): > 100 µM | CC50 at 24 h [2, 5]: > 100 µM

CCOC(=O)c1cn(Cc2ccc(F)cc2)c2ccc(OCc3ccc4ccccc4c3)cc2c1=O [5p, Ethyl 1-(4-Fluorobenzyl)-6-(naphthalen-2-ylmethoxy)-4-oxo-1,4-dihydroquinoline-3-carboxylate]
IC50 [1, 3]: 19.6 µM | EC50 (HIV-1 replication; [4]): > 50 µM | CC50 at 24 h [2, 5]: 73 ± 24 µM | CC50 at 24 h ([2]; supplement CSV, read-out: CC50): > 50 µM

CCOC(=O)c1cn(Cc2ccc(F)cc2)c2ccc(OCc3ccc4c(c3)OCO4)cc2c1=O [5q, Ethyl 6-(Benzo[d][1,3]dioxol-5-ylmethoxy)-1-(4-fluorobenzyl)-4-oxo-1,4-dihydroquinoline-3-carboxylate]
IC50 [1, 3]: 55.3 ± 1.7 µM

CCOC(=O)c1cn(Cc2ccc(F)cc2)c2ccc(OCCCCc3ccccc3)cc2c1=O [5r, Ethyl 1-(4-Fluorobenzyl)-4-oxo-6-(4-phenylbutoxy)-1,4-dihydroquinoline-3-carboxylate]
IC50 ([1]; RH IC50 (uM), supplement CSV): 28.4 ± 4.3 µM | IC50 [1, 3]: 28.4 ± 4.3 µM | EC50 (HIV-1 replication; [4]): > 16 µM | CC50 at 24 h [2, 5]: > 200 µM | CC50 at 24 h ([2]; supplement CSV, read-out: CC50): > 50 µM

CCOC(=O)c1cn(Cc2ccc(F)cc2)c2ccc(OCc3ccc(-c4ccccc4)cc3)cc2c1=O [5s, Ethyl 6-([1,1′-Biphenyl]-4-ylmethoxy)-1-(4-fluorobenzyl)-4-oxo-1,4-dihydroquinoline-3-carboxylate]
IC50 [1, 3]: > 100 µM

CCOC(=O)c1cn(Cc2ccc(F)cc2)c2ccc(OCc3ccc(OCc4ccccc4)cc3)cc2c1=O [5t, Ethyl 6-((4-(Benzyloxy)benzyl)oxy)-1-(4-fluorobenzyl)-4-oxo-1,4-dihydroquinoline-3-carboxylate]
IC50 [1, 3]: > 100 µM

CC(C)c1ccc(O)c(=O)c(O)c1 [BTP, β-thujaplicinol, reference compound]
IC50 [1, 3]: 0.19 ± 0.03 µM

CCOC(=O)/C=C/C(=O)/C=C/c1cccn1Cc1ccccc1Cl [compound 11, reference compound]
IC50 [1, 3]: 7.5 ± 1.32 µM | IC50 (HIV-1 IN): > 100 µM | EC50 (HIV-1 replication; [7]): 2.9 ± 0.5 µM | CC50 at 24 h [2, 5]: 68 ± 10 µM
